{"source": "patent EP0396201A1", "about": "(priority 1989, dated 1990)", "origin": "cited, not measured here", "system": "carbonic anhydrase", "conditions": "carbonic anhydrase inhibitor, relative activity", "data": [{"molecule": "CC(=O)Nc1nnc(S(N)(=O)=O)s1", "note": "[Acetazolamide]", "values": [{"measurement": "times as active as p-aminobenzenesulfonamide", "value": "~330"}]}]}
